pIC50: −log10 of the molar value.
What was measured:
[1] = target: p38α kinase (Homo sapiens (Human), UniProt Q16539); experiment: Inhibition of p38α kinase activity (p38α kinase assay kit, ADP-Glo); format: biochemical; conditions: ATP 50 μM; read-out: IC50 of inhibition effect on p38α kinase activity
Experimental: The inhibition of p38α kinase activity in vitro was determined by the following method.
The inhibition effect of the compounds of the present invention on p38a kinase activity was determined by the following experimental method:
p38α kinase assay kit (V9591, Promega) was used to assay enzyme activity. 2 μl of enzyme solution (the final concentration of enzyme in the reaction system was 0.5 ng/μL) formulated with reaction buffer (40 mM Tris pH 7.5, 20 mM MgCl2, 0.1 mg/ml BSA), 1 μl of a 3-fold gradient dilution of the compounds dissolved in 5% DMSO, and 2 μl of a mixed solution of ATP and p38 substrate peptide (the final concentration of ATP was 50 μM, and the final concentration of substrate was 0.2 μg/μL) were added successively to a 384-well plate (4514, Corning). After reaction at 27° C. for 2.5 hours, 5 μl of ADP-Glo solution in the kit was added to each well, then the plate was placed at 27° C. for 40 minutes. 10 μl of kinase assay reagent was then added to each well, then the plate was placed at 27° C. for 30 minutes. The chemiluminescence signal values were measured with a Victor 3 (PerkinElmer) multi-function microplate reader. The IC50 values of the compounds on enzyme inhibition were calculated using Graphpad prism software based on each concentration of the compound and the corresponding signal value thereof.

[2] = target: TGFβRI kinase ALK5 (Homo sapiens (Human), UniProt P36897); experiment: Inhibition of TGFβRI kinase ALK5 activity (TGFβRI kinase assay kit, ADP-Glo); format: biochemical; conditions: ATP 50 μM; read-out: IC50 of inhibition effect on TGFβRI kinase ALK5 activity
Sequence of TGFβRI kinase ALK5 (P36897 34-503): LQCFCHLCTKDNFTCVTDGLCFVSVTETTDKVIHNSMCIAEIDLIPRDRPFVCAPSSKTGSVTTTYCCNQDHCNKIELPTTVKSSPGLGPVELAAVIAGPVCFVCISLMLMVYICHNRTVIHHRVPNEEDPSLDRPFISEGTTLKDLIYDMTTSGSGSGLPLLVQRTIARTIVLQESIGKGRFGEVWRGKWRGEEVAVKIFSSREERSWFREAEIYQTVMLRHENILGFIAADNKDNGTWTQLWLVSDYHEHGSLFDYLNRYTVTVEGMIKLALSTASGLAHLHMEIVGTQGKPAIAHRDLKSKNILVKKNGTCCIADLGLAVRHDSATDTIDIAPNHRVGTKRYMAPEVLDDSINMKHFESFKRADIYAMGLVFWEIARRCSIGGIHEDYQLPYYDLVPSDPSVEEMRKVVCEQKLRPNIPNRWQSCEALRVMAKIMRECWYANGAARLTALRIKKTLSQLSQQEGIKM
How it was run: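 Kinase reaction: 2 ng/μL enzyme in Tris pH 7.5, MgCl2, BSA buffer with 50 μM ATP and 0.2 μg/μL substrate peptide, 2.5 h at 27 °C. ADP formation read by ADP-Glo luminescence over 3-fold compound dilutions; IC50 calculated from signal versus concentration.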

Sequence of p38α kinase (Q16539 whole entry): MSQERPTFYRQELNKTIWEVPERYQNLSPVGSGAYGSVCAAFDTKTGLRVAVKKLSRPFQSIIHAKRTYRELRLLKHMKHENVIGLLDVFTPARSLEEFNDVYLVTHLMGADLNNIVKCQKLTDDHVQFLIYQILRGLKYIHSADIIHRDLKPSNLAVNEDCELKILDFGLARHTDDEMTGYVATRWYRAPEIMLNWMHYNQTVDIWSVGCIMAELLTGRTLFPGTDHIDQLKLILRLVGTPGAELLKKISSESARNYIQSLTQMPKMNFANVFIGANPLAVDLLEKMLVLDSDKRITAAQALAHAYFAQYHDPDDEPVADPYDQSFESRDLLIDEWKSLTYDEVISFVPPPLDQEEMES

| Compound | pIC50 [1] | pIC50 [2] |
| --- | --- | --- |
| Cc1cccc(-c2nc3n(c2-c2ccc4nnc(C(N)=O)n4c2)[C@H]2CC[C@@H]3C2)n1 [Example 2-1, 6-((5S,8R)-2-(6-Methylpyridin-2-yl)-5,6,7,8-tetrahydro-5,8-methanoimidazo[1,2-a]pyridin-3-yl)[1,2,4]triazolo[4,3-a]pyridine-3-carboxamide] | 5.77 | 8.52 |
| NC(=O)c1ccnc2ccc(-c3c(-c4ccc(F)cn4)nc4n3[C@H]3CC[C@@H]4C3)cc12 [Example 39-1, 6-((5S,8R)-2-(5-Fluoropyridin-2-yl)-5,6,7,8-tetrahydro-5,8-methanoimidazo[1,2-a]pyridin-3-yl)quinoline-4-carboxamide] | 5.32 | 7.59 |
| Cc1cccc(-c2nc3n(c2-c2ccnc(-c4ccc(S(C)(=O)=O)cc4)c2)[C@H]2CC[C@@H]3C2)n1 [Example 3-1, (5S,8R)-2-(6-Methylpyridin-2-yl)-3-(2-(4-(methylsulfonyl)phenyl)pyridin-4-yl)-5,6,7,8-tetrahydro-5,8-methanoimidazo[1,2-a]pyridine] | 6.16 | 8.40 |
| Cc1cccc(-c2nc3n(c2-c2ccc4nccc(C(N)=O)c4c2)[C@H]2CC[C@@H]3C2)n1 [Example 1-1, 6-((5S,8R)-2-(6-Methylpyridin-2-yl)-5,6,7,8-tetrahydro-5,8-methanoimidazo[1,2-a]pyridin-3-yl)quinoline-4-carboxamide] | 6.21 | 8.05 |

— patent publication US10906905B2, “Five-membered heteroaryl ring bridged ring derivative, preparation method therefor and medical use thereof” (Jiangsu Hengrui Medicine Co., Ltd., priority 2016, dated 2021)
